Reference: publication PMC5607274, “An iterative compound screening contest method for identifying target protein inhibitors using the tyrosine-protein kinase Yes” (Scientific Reports, 2017)

The compounds below were run against T1, human recombinant Yes [a.a. 2–543 (end)] (Homo sapiens, UniProt P07947) (assay: ADP-Glo kinase assay, inhibition rates of Yes phosphorylation activity (first and second screening)). Settings: first screening; mean of n = 4 wells; 10 μmol L−1 compound.
T1 construct: human recombinant Yes [a.a; 2–543 (end)]; purchased BPS Bioscience 40488
T1 sequence (P07947 2-543): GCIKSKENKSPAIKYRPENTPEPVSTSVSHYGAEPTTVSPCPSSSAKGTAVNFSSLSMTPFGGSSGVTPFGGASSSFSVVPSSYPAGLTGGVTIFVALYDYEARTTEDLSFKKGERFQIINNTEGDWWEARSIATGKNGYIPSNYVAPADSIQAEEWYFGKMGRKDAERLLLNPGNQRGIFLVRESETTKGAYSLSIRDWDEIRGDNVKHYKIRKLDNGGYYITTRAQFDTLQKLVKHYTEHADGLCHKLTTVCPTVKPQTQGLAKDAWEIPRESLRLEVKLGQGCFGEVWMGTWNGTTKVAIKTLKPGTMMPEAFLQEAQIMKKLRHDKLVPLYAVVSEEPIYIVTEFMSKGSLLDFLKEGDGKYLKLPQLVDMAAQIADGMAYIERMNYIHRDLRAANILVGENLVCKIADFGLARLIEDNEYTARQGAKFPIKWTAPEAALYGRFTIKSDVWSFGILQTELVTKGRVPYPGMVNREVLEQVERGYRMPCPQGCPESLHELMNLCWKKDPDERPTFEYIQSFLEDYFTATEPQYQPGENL
Assay type: biochemical
Summary of the method: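 ADP-Glo luminescence measured inhibition of human recombinant Yes (a.a. 2–543) phosphorylation activity. In the first screen, each compound ran in 4 wells and inhibition rates were averaged. The second screen retested hits as compounds dissolved from fresh powder.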
With O=C(Nc1n[nH]c(-c2ccc(F)cc2)n1)c1csc2c1CCCC2 [Compound Z119708890] the “First screening IR (inhibition rate)” value was -5%.
With Cc1ccc(-c2nc(NC(=O)c3ccc(F)cc3F)n[nH]2)cc1 [Compound Z119762582] the “First screening IR (inhibition rate)” value was -5%.
For Cc1ccc2nc(-c3ccc(Nc4nnc(Cc5csc(C)n5)s4)cc3)sc2c1 [Compound Z119992430], the “First screening IR (inhibition rate)” value was 40%.
CC(C(=O)N1CCN(S(=O)(=O)c2ccccc2)CC1)N1CCC(C(N)=O)CC1 (centres unmarked) [Compound Z123938232] was tested, and the “First screening IR (inhibition rate)” value was 0%.
In the case of Cc1c(C#N)c(NC(=O)CN2CCN(Cc3nc4ccccc4s3)CC2)n(CC2CCCO2)c1C (centres unmarked) [Compound Z125608446], the “First screening IR (inhibition rate)” value is reported as 12%.
With O=C(CN1CCN(Cc2nc3scc(-c4ccc(F)cc4)c3c(=O)[nH]2)CC1)N1CCCCCC1 [Compound Z126042696] the “First screening IR (inhibition rate)” value was 22%.
Cc1ccc(-c2c(C)sc3nc(CN4CCN(CC(=O)N5CCCCCC5)CC4)[nH]c(=O)c23)cc1 [Compound Z126044810] was tested, and the “First screening IR (inhibition rate)” value was -3%.
With Cc1c(C#N)c(NC(=O)CN2CCC(n3c(=O)[nH]c4ccccc43)CC2)n(Cc2ccco2)c1C [Compound Z126941634] the “First screening IR (inhibition rate)” value was 9%.
COCCNC(=O)CN1CCN(c2nc(-c3cccnc3)nc3scc(-c4ccccc4)c23)CC1 [Compound Z128012326] was tested, and the “First screening IR (inhibition rate)” value was 9%.
For CC(Nc1ccc([N+](=O)[O-])cc1[N+](=O)[O-])c1nnc2ccccn12 (centres unmarked) [Compound Z128086498], the “First screening IR (inhibition rate)” value was -9%.
In the case of COc1ccc(-c2csc3nc(C)nc(N4CCCN(CC(=O)NC(C)(C)C)CC4)c23)cc1OC [Compound Z128141646], the “First screening IR (inhibition rate)” value is reported as -7%.
For COc1ccc(OC)c2c1CN(c1nc(CN3CCOCC3)nc3sc(C)c(C)c13)CC2O (centres unmarked) [Compound Z128154998], the “First screening IR (inhibition rate)” value was 47%.
For Cc1c(C#N)c(NC(=O)CN2CCC(n3c(=O)[nH]c4ccccc43)CC2)n(Cc2cccs2)c1C [Compound Z130194258], the “First screening IR (inhibition rate)” value was 22%.
For CN(C1(C)CCS(=O)(=O)C1)S(=O)(=O)c1ccc(Cl)c(Cl)c1 (centres unmarked) [Compound Z131022412], the “First screening IR (inhibition rate)” value was 2%.
Cc1ccc(S(=O)(=O)N(C)C2(C)CCS(=O)(=O)C2)cc1 (centres unmarked) [Compound Z131022526] was tested, and the “First screening IR (inhibition rate)” value was 3%.
In the case of CC1(C(=O)N2CCCc3cc(S(=O)(=O)N4CCCC4)ccc32)Cc2ccccc2C(=O)O1 (centres unmarked) [Compound Z131206652], the “First screening IR (inhibition rate)” value is reported as -1%.
For COc1ccc(Br)c(C(=O)NCc2ccc(-c3csc(C)n3)cc2)c1 [Compound Z131231284], the “First screening IR (inhibition rate)” value was -17%.
O=C(CCc1cnn(-c2ccccc2)c1)Nc1nc2c(s1)CCCC2 [Compound Z131246512] was tested, and the “First screening IR (inhibition rate)” value was -5%.
In the case of CC1CCN(c2ccc(NC(C)C(=O)Nc3cccc([N+](=O)[O-])c3)cc2)CC1 (centres unmarked) [Compound Z132693290], the “First screening IR (inhibition rate)” value is reported as 26%.
CCN(C1CCS(=O)(=O)C1)S(C)(=O)=O (centres unmarked) [Compound Z133704180] was tested, and the “First screening IR (inhibition rate)” value was 8%.
For CC(C)CN(C1CCS(=O)(=O)C1)S(C)(=O)=O (centres unmarked) [Compound Z133987698], the “First screening IR (inhibition rate)” value was 12%.
With Cl.Oc1ccc(O)c(-c2cc(-c3ccccc3Cl)c3cc(Cl)ccc3n2)c1 [Compound Z134829678] the “First screening IR (inhibition rate)” value was 25%.
With Cc1ccc(OCCSCc2nc(N)nc(Nc3ccc(F)cc3)n2)cc1 [Compound Z135099694] the “First screening IR (inhibition rate)” value was 9%.
CSc1ccc(CSCc2nc(N)nc(Nc3ccc(F)cc3)n2)cc1 [Compound Z135100070] was tested, and the “First screening IR (inhibition rate)” value was -6%.
With O=C1NC(c2ccc(OCc3cn4ccccc4n3)cc2)Nc2ccccc21 (centres unmarked) [Compound Z135163592] the “First screening IR (inhibition rate)” value was 6%.
With CCn1cc(C(=O)c2cc(Cl)ccc2O)cc1-c1nc2ccccc2c(=O)[nH]1 [Compound Z135358570] the “First screening IR (inhibition rate)” value was 7%.
With CC1(CCc2ccccc2)NC(=O)N(NC(=O)c2ccc(-n3cnc4ccccc43)cc2)C1=O (centres unmarked) [Compound Z136752996] the “First screening IR (inhibition rate)” value was 9%.
In the case of Cc1ccn2cc(C(=O)NCCCn3nc(C)cc3C)nc2c1 [Compound Z137367324], the “First screening IR (inhibition rate)” value is reported as 2%.
CCn1c(CNc2ccc3c(C)cc(=O)oc3c2)nc2cc(S(=O)(=O)N3CCCCC3)ccc21 [Compound Z139671368] was tested, and the “First screening IR (inhibition rate)” value was -9%.
NC(=O)C1CCN(C(=O)CNc2cc(Cl)ccc2Sc2ccc(F)cc2)CC1 [Compound Z140497072] was tested, and the “First screening IR (inhibition rate)” value was -9%.
In the case of COc1ccccc1-c1nn(-c2ccccc2)cc1C(=O)N1CCN(CC(=O)N2CCCCC2)CC1 [Compound Z145138304], the “First screening IR (inhibition rate)” value is reported as 15%.
For Cc1ccc(C(CN2CCOCC2)NC(=O)Cn2cnc3sc(-c4ccccc4)cc3c2=O)cc1 (centres unmarked) [Compound Z146866146], the “First screening IR (inhibition rate)” value was 6%.
In the case of Cc1ccc(-c2csc3ncn(CC(=O)NC(CN4CCOCC4)c4ccccc4)c(=O)c23)cc1 (centres unmarked) [Compound Z146890674], the “First screening IR (inhibition rate)” value is reported as 4%.
Cc1noc(C)c1COc1cccc(C(=O)N2CCN(Cc3cc(=O)n4ccsc4n3)CC2)c1 [Compound Z147054608] was tested, and the “First screening IR (inhibition rate)” value was 14%.
O=C(NCCCOc1ccccc1F)c1ccc2nc[nH]c2c1 [Compound Z147064724] was tested, and the “First screening IR (inhibition rate)” value was 0%.
For CC(C)n1ncc2c(C(=O)N3CCN(CC(=O)N4CCCCC4)CC3)cc(-c3ccccc3)nc21 [Compound Z147118228], the “First screening IR (inhibition rate)” value was -5%.
CCCCN(C1CCS(=O)(=O)C1)S(=O)(=O)c1ccc(Cl)c(Cl)c1 (centres unmarked) [Compound Z147580066] was tested, and the “First screening IR (inhibition rate)” value was 30%.
With COc1ccc2c(c1)c(CC(=O)OCc1ncc(Cl)n1C)c(C)n2C(=O)c1ccc(Cl)cc1 [Compound Z148531038] the “First screening IR (inhibition rate)” value was 0%.
Cc1ccc(S(=O)(=O)N(C)C2(C)CCS(=O)(=O)C2)cc1C (centres unmarked) [Compound Z150918412] was tested, and the “First screening IR (inhibition rate)” value was 9%.
In the case of CC(Sc1nnc(NCc2ccc(F)cc2)s1)C(=O)N1CCCCCC1 (centres unmarked) [Compound Z151845340], the “First screening IR (inhibition rate)” value is reported as 33%.
For CCC(C)N(CC(=O)Nc1cccc(C)c1C)C(=O)COC(=O)c1cc(C(C)=O)cn1C (centres unmarked) [Compound Z152371002], the “First screening IR (inhibition rate)” value was -9%.
In the case of Cc1ccc(-n2c(C)nnc2SCC(=O)Nc2c(C#N)c(C)c(C)n2Cc2ccccc2)cc1 [Compound Z152755906], the “First screening IR (inhibition rate)” value is reported as 5%.
CCOC(=O)c1c(C)oc2ncn(Cc3cccc(F)c3F)c(=O)c12 [Compound Z154098858] was tested, and the “First screening IR (inhibition rate)” value was 2%.
In the case of CN1N=C(C(=O)N2CCN(S(=O)(=O)c3ccccc3C(F)(F)F)CC2)CCC1=O [Compound Z164780402], the “First screening IR (inhibition rate)” value is reported as 7%.
O=C1CCc2cc(C(=O)Nc3nnc(SCc4c(Cl)cccc4Cl)s3)ccc2N1 [Compound Z164941068] was tested, and the “First screening IR (inhibition rate)” value was -3%.
Cc1nc(-c2ccc(CNC(=O)Cc3cccc(F)c3)o2)cs1 [Compound Z164951688] was tested, and the “First screening IR (inhibition rate)” value was -7%.
For Cc1c(C(=O)N2CCN(C(=O)C3CCS(=O)(=O)C3)CC2)[nH]c2c1C(=O)CC(C)(C)C2 (centres unmarked) [Compound Z164965524], the “First screening IR (inhibition rate)” value was 25%.
For CC(=O)c1c[nH]c(C(=O)NCCc2ccc(-c3csc(C)n3)s2)c1 [Compound Z165050208], the “First screening IR (inhibition rate)” value was 3%.
With O=C(CN1CCN(c2cc(C(=O)N3CCOCC3)c3ccccc3n2)CC1)Nc1ccccc1Cl [Compound Z165229378] the “First screening IR (inhibition rate)” value was 39%.
With O=C(CN1CCN(c2nc(-c3ccccn3)nc3scc(-c4ccccc4)c23)CC1)N1CCCCC1 [Compound Z165261492] the “First screening IR (inhibition rate)” value was 13%.
In the case of O=C(CN1CCN(c2nc(-c3cccnc3)nc3scc(-c4ccccc4)c23)CC1)N1CCCCC1 [Compound Z165261498], the “First screening IR (inhibition rate)” value is reported as 9%.
For COc1ccc(C(N)=O)c(OCc2cc(C)cc(C)c2)c1 [Compound Z165885974], the “First screening IR (inhibition rate)” value was 4%.
For NC(=O)c1ccc(COC(=O)CCc2ccc3ccccc3n2)c([N+](=O)[O-])c1 [Compound Z166077836], the “First screening IR (inhibition rate)” value was -4%.
O=C(CCc1ccc2ccccc2n1)OCCOc1ccc(S(=O)(=O)N2CCOCC2)cc1 [Compound Z166077876] was tested, and the “First screening IR (inhibition rate)” value was -20%.
With CNc1snc(C)c1C(=O)OCc1csc(-c2ccc(F)cc2)n1 [Compound Z166256344] the “First screening IR (inhibition rate)” value was -7%.
NC(=O)CCN(C(=O)CSc1ncc2ccccn12)c1ccccc1 [Compound Z166362686] was tested, and the “First screening IR (inhibition rate)” value was 55%.
Cl.Oc1c(-c2ccccc2)nc2ccc(Cl)cc2c1-c1ccccc1 [Compound Z166605136] was tested, and the “First screening IR (inhibition rate)” value was 8%.
In the case of Cc1cc(C)cc(C(=O)N(c2cc(C)cc(C)c2)C2C=CS(=O)(=O)C2)c1 (centres unmarked) [Compound Z166605882], the “First screening IR (inhibition rate)” value is reported as 34%.
With CC1CCC(NS(=O)(=O)c2ccc(N3CCCC(c4nnc5ccccn45)C3)c([N+](=O)[O-])c2)CC1 (centres unmarked) [Compound Z166704886] the “First screening IR (inhibition rate)” value was 5%.
For CCN(CC)S(=O)(=O)c1ccc(N2CCc3c(sc(N)c3C#N)C2)c([N+](=O)[O-])c1 [Compound Z166707558], the “First screening IR (inhibition rate)” value was 1%.
With O=C(CCc1ccc(S(=O)(=O)N2CCCC2)cc1)NCC(c1ccccc1Cl)N1CCCC1 (centres unmarked) [Compound Z166811416] the “First screening IR (inhibition rate)” value was -3%.
For O=C(Cc1coc(-c2ccccc2)n1)Nc1ccc2ccccc2n1 [Compound Z167063860], the “First screening IR (inhibition rate)” value was -6%.
In the case of O=C(NCCCN1CCCCC1)c1cc(-c2ccccc2)nc2c1cnn2Cc1ccncc1 [Compound Z167254296], the “First screening IR (inhibition rate)” value is reported as -28%.
With COc1cc(C(=O)Nc2ccc3c(c2)NC(=O)C(C)O3)cc2c1OC(C)C2 (centres unmarked) [Compound Z167364352] the “First screening IR (inhibition rate)” value was 6%.
For Cc1cccc(OCCCNC(=O)c2ccc3nc[nH]c3c2)c1 [Compound Z168616264], the “First screening IR (inhibition rate)” value was -4%.
With O=C(CCC1NC(=O)NC1=O)Nc1ccc(Oc2ccccc2Cl)cc1 (centres unmarked) [Compound Z168726218] the “First screening IR (inhibition rate)” value was 11%.
With Nc1ncnc2sc3c(c12)CCN(C(=O)c1ccc2c(c1)CCC2)C3 [Compound Z168757250] the “First screening IR (inhibition rate)” value was 4%.

Same assay, conditions: second screening, dissolved from fresh powder; n = 4; 10 μmol L−1 compound
For COc1ccc(OC)c2c1CN(c1nc(CN3CCOCC3)nc3sc(C)c(C)c13)CC2O (centres unmarked) [Compound Z128154998], the “Second screening IR (inhibition rate)” value was -4%.
